Reference: PubChem BioAssay (NCI)
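Assay format: 96-well plates, 48-hour exposure. The concentration for full growth arrest is given as TGI.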

What was measured:
Assay in all cases: DTP human tumour cell line panel, 48 h
BT-549 breast = test system: BT-549 breast
SR leukemia = test system: SR leukemia
SK-MEL-28 melanoma = test system: SK-MEL-28 melanoma
SF-539 CNS = test system: SF-539 CNS
UACC-62 melanoma = test system: UACC-62 melanoma
HCT-15 colon = test system: HCT-15 colon
MALME-3M melanoma = test system: MALME-3M melanoma
NCI-H23 lung = test system: NCI-H23 lung
SF-295 CNS = test system: SF-295 CNS
COLO 205 colon = test system: COLO 205 colon
NCI-H460 lung = test system: NCI-H460 lung
HS 578T breast = test system: HS 578T breast
KM12 colon = test system: KM12 colon
HCT-116 colon = test system: HCT-116 colon
OVCAR-8 ovarian = test system: OVCAR-8 ovarian
MCF7 breast = test system: MCF7 breast
OVCAR-3 ovarian = test system: OVCAR-3 ovarian
HOP-62 NSCLC = test system: HOP-62 NSCLC

| SMILES | TGI (BT-549 breast) | TGI (SR leukemia) | TGI (SK-MEL-28 melanoma) | TGI (SF-539 CNS) | TGI (UACC-62 melanoma) | TGI (HCT-15 colon) | TGI (MALME-3M melanoma) | TGI (NCI-H23 lung) | TGI (SF-295 CNS) | TGI (COLO 205 colon) | TGI (NCI-H460 lung) | TGI (HS 578T breast) | TGI (KM12 colon) | TGI (HCT-116 colon) | TGI (OVCAR-8 ovarian) | TGI (MCF7 breast) | TGI (OVCAR-3 ovarian) | TGI (HOP-62 NSCLC) |
| --- | --- | --- | --- | --- | --- | --- | --- | --- | --- | --- | --- | --- | --- | --- | --- | --- | --- | --- |
| O=C(Nc1ccccc1)n1[nH]c(=O)n(-c2ccccc2)c1=O | > 100 µM | > 100 µM | > 100 µM | > 100 µM | > 100 µM | > 100 µM | > 100 µM | > 100 µM | > 100 µM | > 100 µM | > 100 µM | > 100 µM | > 100 µM | > 100 µM | > 100 µM | > 100 µM | – | – |
| CC1(C)C/C(=N/O)c2c(nc3ccc4ccccc4c3c2-c2ccc(Cl)cc2)C1 | 30.9 µM | 21 µM | > 100 µM | 36.4 µM | 37.1 µM | 41.6 µM | – | 46.7 µM | 22.8 µM | 72.8 µM | 19.7 µM | 76.2 µM | > 100 µM | 24.1 µM | 25 µM | 24.1 µM | 24.7 µM | 92.2 µM |
| COc1ccc(C2=NN(C(N)=S)C(c3ccccc3)C2)cc1 (stereo not drawn) | > 100 µM | 77.3 µM | > 100 µM | > 100 µM | > 100 µM | > 100 µM | 82.2 µM | > 100 µM | 96.2 µM | 58.7 µM | > 100 µM | > 100 µM | > 100 µM | > 100 µM | > 100 µM | 69.6 µM | > 100 µM | > 100 µM |
| O=[N+]([O-])c1cc2c(c([N+](=O)[O-])c1)NCc1ccccc1O2 | > 100 µM | > 100 µM | > 100 µM | > 100 µM | > 100 µM | > 100 µM | > 100 µM | > 100 µM | > 100 µM | > 100 µM | > 100 µM | > 100 µM | > 100 µM | > 100 µM | > 100 µM | > 100 µM | > 100 µM | > 100 µM |
| COc1ccc(OC2OC(COC(c3ccccc3)(c3ccc(OC)cc3)c3ccc(OC)cc3)C(O)C(O)C2O)cc1 (stereo not drawn) | 27 µM | > 100 µM | 10.1 µM | 17 µM | 14.1 µM | 46.4 µM | 21.2 µM | 15.3 µM | 15 µM | 9.85 µM | 9.21 µM | 19.1 µM | 14.7 µM | 10.7 µM | – | 14.7 µM | 14.7 µM | 24.5 µM |
| Cc1ccc(C2SC(N)=Nc3c2c(C)nn3C(=O)c2ccccc2O)cc1 (stereo not drawn) | > 10 µM | > 10 µM | > 10 µM | > 10 µM | 4.27 µM | > 10 µM | > 10 µM | > 10 µM | – | > 10 µM | > 10 µM | 5.27 µM | > 10 µM | > 10 µM | > 10 µM | > 10 µM | > 10 µM | > 10 µM |
| C=CCN1C(=O)/C(=C/c2ccc(C)cc2)NC1=S | > 100 µM | > 100 µM | > 100 µM | > 100 µM | > 100 µM | > 100 µM | – | > 100 µM | > 100 µM | > 100 µM | > 100 µM | > 100 µM | > 100 µM | > 100 µM | > 100 µM | > 100 µM | > 100 µM | > 100 µM |
| O=S(Nc1ccccc1)c1ccc(Cl)c(Cl)c1 (stereo not drawn) | 54.4 µM | > 100 µM | > 100 µM | 53 µM | 64.6 µM | > 100 µM | > 100 µM | > 100 µM | 50.1 µM | > 100 µM | > 100 µM | 84.7 µM | 33.1 µM | > 100 µM | > 100 µM | > 100 µM | > 100 µM | 79.1 µM |
| S=C1CSc2c(ccc3ccccc23)N1 | > 100 µM | > 100 µM | > 100 µM | – | > 100 µM | > 100 µM | > 100 µM | > 100 µM | > 100 µM | > 100 µM | > 100 µM | > 100 µM | > 100 µM | > 100 µM | > 100 µM | > 100 µM | > 100 µM | > 100 µM |
| COC(=O)c1c2c(cc3c1CC1(Cc4ccc(C(C)=O)cc4C1)C3)CCC2 (stereo not drawn) | > 100 µM | > 100 µM | > 100 µM | > 100 µM | > 100 µM | > 100 µM | 61.9 µM | > 100 µM | > 100 µM | > 100 µM | > 100 µM | 80.7 µM | > 100 µM | > 100 µM | > 100 µM | > 100 µM | > 100 µM | > 100 µM |
